{"source": "PubChem BioAssay (NCI)", "tested_on": "P388/ADR leukemia", "assay": "NCI tumour cell line growth inhibition, 48 h", "note": "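Values below derive from 48-hour exposures of cells grown in 96-well plates, with endpoints linearly interpolated between the two concentrations bracketing the appropriate inhibition level. TGI marks complete inhibition of growth.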"}
{"compound": "CC1=C(C(=O)Nc2ccc(Cl)c(C(=O)OC(C)C)c2)SCCO1", "values": [{"measurement": "TGI", "value": 46.4, "unit": "µM"}]}
